Measured values from PMC6315749 (Marine Drugs, 2018).

Key:
[1] = biological target: Aplysia californica AChBP (Aplysia californica, UniProt Q8WSF8); assay: biochemical; type: binding
rat α9α10 nAChR = settings: cited from earlier work

Chain of Aplysia californica AChBP (Q8WSF8 18-236 limits assumed): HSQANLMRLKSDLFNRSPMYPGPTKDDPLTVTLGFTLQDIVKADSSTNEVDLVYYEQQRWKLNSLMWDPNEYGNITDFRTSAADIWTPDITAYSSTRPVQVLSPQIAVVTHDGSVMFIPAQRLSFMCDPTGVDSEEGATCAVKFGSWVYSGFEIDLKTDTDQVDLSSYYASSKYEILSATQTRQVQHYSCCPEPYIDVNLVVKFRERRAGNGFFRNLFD

Row | Compound | IC50 [1] [nM] | affinity for rat α9α10 nAChRs (rat α9α10 nAChR)
1 | N=C(N)NCCC[C@H](NC(=O)[C@@H]1CSSC[C@@H]2NC(=O)[C@@H](NC(=O)CN)CSSC[C@H](NC(=O)[C@H](CCCNC(=N)N)NC(=O)[C@@H]3CCCN3C(=O)[C@H](CC(=O)O)NC(=O)[C@H](CO)NC2=O)C(=O)N[C@@H](CCCNC(=N)N)C(=O)N[C@@H](Cc2ccc(O)cc2)C(=O)N[C@@H](CCCNC(=N)N)C(=O)N1)C(=O)O [RgIA globular isomer] | 194 ± 14 | –
2 | N=C(N)NCCC[C@H](NC(=O)[C@@H]1CSSC[C@H](NC(=O)CN)C(=O)N[C@H]2CSSC[C@H](NC(=O)[C@H](CCCNC(=N)N)NC(=O)[C@@H]3CCCN3C(=O)[C@H](CC(=O)O)NC(=O)[C@H](CO)NC2=O)C(=O)N[C@@H](CCCNC(=N)N)C(=O)N[C@@H](Cc2ccc(O)cc2)C(=O)N[C@@H](CCCNC(=N)N)C(=O)N1)C(=O)O [RgIA ribbon isomer] | 1000 ± 80 | –
3 | Vc1.1 | – | nanomolar
